The subject of the first experiment is HCV 1b-377-neo replicon cells. The experiment in a line: HCV replicon assay, HCV 1b-377-neo replicon cells (1b FRET). Format: cell-based, Hepatitis C virus genotype 1b. The following applies: HCV 1b-377-neo replicon cells; HCV 1b genotype; read-out: EC50 range against HCV 1b (Table 2, Range). An outline of the steps: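 Compounds tested in HCV genotype 1b-377-neo replicon cells with a FRET read-out. Cells resistant to a reference NS5A inhibitor through a Y2065H NS5A mutation were run alongside wild-type cells.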
For the compound `COC(=O)N[C@@H](CCN1CCOCC1)C(=O)N1CCC[C@H]1c1ncc(-c2ccc(-c3ccc(-c4cnc([C@@H]5CCCN5C(=O)[C@@H](NC(=O)OC)C(C)C)[nH]4)cc3)cc2)[nH]1` [Example M68], the EC50 was in the range of 100 to 999 nM.
In the case of `CCC[C@H](NC(=O)OC)C(=O)N1CCC[C@H]1c1ncc(-c2ccc(-c3ccc(-c4cnc([C@@H]5CCCN5C(=O)[C@@H](NC(=O)OC)C(C)C)[nH]4)cc3)cc2)[nH]1` [Example M75, methyl ((1S)-1-(((2S)-2-(5-(4′-(2-((2S)-1-((2S)-2-((methoxycarbonyl)amino)-3-methylbutanoyl)-2-pyrrolidinyl)-1H-imidazol-5-yl)-4-biphenylyl)-1H-imidazol-2-yl)-1-pyrrolidinyl)carbonyl)butyl) carbamate], the EC50 fell in the range of 1 to 99 nM.
Still for that read-out and setting: in the case of `COC(=O)N[C@H](C(=O)N1CCC[C@H]1c1ncc(-c2ccc(-c3ccc(-c4cnc([C@@H]5CCCN5C(=O)CC(C)C)[nH]4)cc3)cc2)[nH]1)C(C)C` [Example M81, methyl ((1S)-2-methyl-1-(((2S)-2-(5-(4′-(2-((2S)-1-(3-methylbutanoyl)-2-pyrrolidinyl)-1H-imidazol-5-yl)-4-biphenylyl)-1H-imidazol-2-yl)-1-pyrrolidinyl)carbonyl)propyl) carbamate] it was 100 to 999 nM; in that of `COC(=O)N[C@H](C(=O)N1CCC[C@H]1c1ncc(-c2ccc(-c3ccc(-c4cnc([C@@H]5CCCN5C(=O)N5CCN(C)CC5)[nH]4)cc3)cc2)[nH]1)C(C)C` [Example M82, methyl ((1S)-2-methyl-1-(((2S)-2-(5-(4′-(2-((2S)-1-((4-methyl-1-piperazinyl)carbonyl)-2-pyrrolidinyl)-1H-imidazol-5-yl)-4-biphenylyl)-1H-imidazol-2-yl)-1-pyrrolidinyl)carbonyl)propyl) carbamate], 1 to 99 nM.

Staying with this experiment, now noted: Hepatitis C virus, HCV 1b-377-neo replicon cells; HCV 1b genotype; read-out: EC50 range against HCV 1b (Table 2, Range).
For the compound `CCN(CC)CCC(NC(=O)OC)C(=O)N1CCC[C@H]1c1ncc(-c2ccc(-c3ccc(-c4cnc([C@@H]5CCCN5C(=O)[C@H](NC(=O)OC)c5ccccc5)[nH]4)cc3)cc2)[nH]1` (stereo partly drawn) [Example M66a, methyl ((1R)-2-((2S)-2-(5-(4′-(2-((2S)-1-(4-(diethylamino)-2-((methoxycarbonyl)amino)butanoyl)-2-pyrrolidinyl)-1H-imidazol-5-yl)-4-biphenylyl)-1H-imidazol-2-yl)-1-pyrrolidinyl)-2-oxo-1-phenylethyl)carbamate], the EC50 fell in the range of 100 to 999 nM.
Still for that read-out and setting: in the case of `CC[C@H](C(=O)N1CCC[C@H]1c1ncc(-c2ccc(-c3ccc(-c4cnc([C@@H]5CCCN5C(=O)[C@H](NC(=O)OC)c5ccccc5)[nH]4)cc3)cc2)[nH]1)N(CC)CC` [Example M66x, methyl ((1R)-2-((2S)-2-(5-(4′-(2-((2S)-1-((2R)-2-(diethylamino)butanoyl)-2-pyrrolidinyl)-1H-imidazol-5-yl)-4-biphenylyl)-1H-imidazol-2-yl)-1-pyrrolidinyl)-2-oxo-1-phenylethyl)carbamate] it was 1 to 99 nM; in that of `CCN(CC)CCC(NC(=O)OC)C(=O)N1CCC[C@H]1c1ncc(-c2ccc(-c3ccc(-c4cnc([C@@H]5CCCN5C(=O)[C@@H](NC(=O)OC)C(C)C)[nH]4)cc3)cc2)[nH]1` (stereo partly drawn) [Example M67a, methyl ((1S)-1-(((2S)-2-(5-(4′-(2-((2S)-1-(4-(diethylamino)-2-((methoxycarbonyl)amino)butanoyl)-2-pyrrolidinyl)-1H-imidazol-5-yl)-4-biphenylyl)-1H-imidazol-2-yl)-1-pyrrolidinyl)carbonyl)-2-methylpropyl)carbamate], 100 to 999 nM.
Still for that read-out and setting: in the case of `CCN(CC)[C@@H](C)C(=O)N1CCC[C@H]1c1ncc(-c2ccc(-c3ccc(-c4cnc([C@@H]5CCCN5C(=O)[C@@H](NC(=O)OC)C(C)C)[nH]4)cc3)cc2)[nH]1` [Example M69, methyl ((1S)-1-(((2S)-2-(5-(4′-(2-((2S)-1-(N,N-diethyl-L-alanyl)-2-pyrrolidinyl)-1H-imidazol-5-yl)-4-biphenylyl)-1H-imidazol-2-yl)-1-pyrrolidinyl)carbonyl)-2-methylpropyl)carbamate] it was 100 to 999 nM; in that of `CCN(CC)[C@H](C)C(=O)N1CCC[C@H]1c1ncc(-c2ccc(-c3ccc(-c4cnc([C@@H]5CCCN5C(=O)[C@@H](NC(=O)OC)C(C)C)[nH]4)cc3)cc2)[nH]1` [Example M70, methyl ((1S)-1-(((2S)-2-(5-(4′-(2-((2S)-1-(N,N-diethyl-D-alanyl)-2-pyrrolidinyl)-1H-imidazol-5-yl)-4-biphenylyl)-1H-imidazol-2-yl)-1-pyrrolidinyl)carbonyl)-2-methylpropyl)carbamate], 1 to 99 nM; in that of `COC[C@H](NC(=O)OC)C(=O)N1CCC[C@H]1c1ncc(-c2ccc(-c3ccc(-c4cnc([C@@H]5CCCN5C(=O)[C@@H](NC(=O)OC)C(C)C)[nH]4)cc3)cc2)[nH]1` [Example M71, methyl ((1S)-2-((2S)-2-(5-(4′-(2-((2S)-1-(N-(methoxycarbonyl)-L-valyl)-2-pyrrolidinyl)-1H-imidazol-5-yl)-4-biphenylyl)-1H-imidazol-2-yl)-1-pyrrolidinyl)-1-(methoxymethyl)-2-oxoethyl)carbamate], 1 to 99 nM.
Still for that read-out and setting: in the case of `COC(=O)N[C@H](C(=O)N1CCC[C@H]1c1ncc(-c2ccc(-c3ccc(-c4cnc([C@@H]5CCCN5C(=O)[C@@H](NC(=O)OC)C(C)(C)C)[nH]4)cc3)cc2)[nH]1)C(C)C` [Example M72, methyl ((1S)-1-(((2S)-2-(5-(4′-(2-((2S)-1-((2S)-2-((methoxycarbonyl)amino)-3,3-dimethylbutanoyl)-2-pyrrolidinyl)-1H-imidazol-5-yl)-4-biphenylyl)-1H-imidazol-2-yl)-1-pyrrolidinyl)carbonyl)-2-methylpropyl)carbamate] it was 1 to 99 nM; in that of `COC(=O)NCC(=O)N1CCC[C@H]1c1ncc(-c2ccc(-c3ccc(-c4cnc([C@@H]5CCCN5C(=O)[C@@H](NC(=O)OC)C(C)C)[nH]4)cc3)cc2)[nH]1` [Example M73, methyl (2-((2S)-2-(5-(4′-(2-((2S)-1-((2S)-2-((methoxycarbonyl)amino)-3-methylbutanoyl)-2-pyrrolidinyl)-1H-imidazol-5-yl)-4-biphenylyl)-1H-imidazol-2-yl)-1-pyrrolidinyl)-2-oxoethyl)carbamate], 100 to 999 nM.
Turning to `CC[C@H](NC(=O)OC)C(=O)N1CCC[C@H]1c1ncc(-c2ccc(-c3ccc(-c4cnc([C@@H]5CCCN5C(=O)[C@@H](NC(=O)OC)C(C)C)[nH]4)cc3)cc2)[nH]1` [Example M74, methyl ((1S)-1-(((2S)-2-(5-(4′-(2-((2S)-1-((2S)-2-((methoxycarbonyl)amino)butanoyl)-2-pyrrolidinyl)-1H-imidazol-5-yl)-4-biphenylyl)-1H-imidazol-2-yl)-1-pyrrolidinyl)carbonyl)-2-methylpropyl)carbamate], the EC50 is 1 to 99 nM.
Still for that read-out and setting: in the case of `C=CC[C@H](NC(=O)OC)C(=O)N1CCC[C@H]1c1ncc(-c2ccc(-c3ccc(-c4cnc([C@@H]5CCCN5C(=O)[C@@H](NC(=O)OC)C(C)C)[nH]4)cc3)cc2)[nH]1` [Example M76, methyl ((1S)-1-(((2S)-2-(5-(4′-(2-((2S)-1-((2S)-2-((methoxycarbonyl)amino)-3-methylbutanoyl)-2-pyrrolidinyl)-1H-imidazol-5-yl)-4-biphenylyl)-1H-imidazol-2-yl)-1-pyrrolidinyl)carbonyl)-3-buten-1-yl)carbamate] it was 1 to 99 nM; in that of `COC(=O)N[C@H](C(=O)N1CCC[C@H]1c1ncc(-c2ccc(-c3ccc(-c4cnc([C@@H]5CCCN5C(=O)[C@@H](NC(=O)OC)C5CC5)[nH]4)cc3)cc2)[nH]1)C(C)C` [Example M77, methyl ((1S)-1-(((2S)-2-(5-(4′-(2-((2S)-1-((2S)-2-cyclopropyl-2-((methoxycarbonyl)amino)acetyl)-2-pyrrolidinyl)-1H-imidazol-5-yl)-4-biphenylyl)-1H-imidazol-2-yl)-1-pyrrolidinyl)carbonyl)-2-methylpropyl)carbamate], 1 to 99 nM; in that of `CCN(C)[C@@H](C(=O)N1CCC[C@H]1c1ncc(-c2ccc(-c3ccc(-c4cnc([C@@H]5CCCN5C(=O)[C@@H](NC(=O)OC)C(C)C)[nH]4)cc3)cc2)[nH]1)c1ccccc1` [Example M78, methyl ((1S)-1-(((2S)-2-(5-(4′-(2-((2S)-1-((2R)-2-(ethyl(methyl)amino)-2-phenylacetyl)-2-pyrrolidinyl)-1H-imidazol-5-yl)-4-biphenylyl)-1H imidazol-2-yl)-1-pyrrolidinyl)carbonyl)-2-methylpropyl)carbamate], 1 to 99 nM.
For the compound `CCN(CC)[C@@H](C(=O)N1CCC[C@H]1c1ncc(-c2ccc(-c3ccc(-c4cnc([C@@H]5CCCN5C(=O)[C@@H](NC(=O)OC)C(C)C)[nH]4)cc3)cc2)[nH]1)C(C)C` [Example M79, methyl ((1S)-1-(((2S)-2-(5-(4′-(2-((2S)-1-(N,N-diethyl-D-valyl)-2-pyrrolidinyl)-1H-imidazol-5-yl)-4-biphenylyl)-1H-imidazol-2-yl)-1-pyrrolidinyl)carbonyl)-2-methylpropyl)carbamate], the EC50 was 1 to 99 nM.
The same measure, in the same setting: in the case of `COC(=O)N[C@H](C(=O)N1CCC[C@H]1c1ncc(-c2ccc(-c3ccc(-c4cnc([C@@H]5CCCN5C(=O)[C@H](NC(=O)OC)c5ccccc5)[nH]4)cc3)cc2)[nH]1)C(C)C` [Example M80, methyl ((1S)-1-(((2S)-2-(5-(4′-(2-((2S)-1-((2R)-2-((methoxycarbonyl)amino)-2-phenylacetyl)-2-pyrrolidinyl)-1H-imidazol-5-yl)-4-biphenylyl)-1H-imidazol-2-yl)-1-pyrrolidinyl)carbonyl)-2-methylpropyl)carbamate] it was 1 to 99 nM.
For the compound `CCCN(CCC)[C@H](C)C(=O)N1CCC[C@H]1c1ncc(-c2ccc(-c3ccc(-c4cnc([C@@H]5CCCN5C(=O)[C@@H](NC(=O)OC)C(C)C)[nH]4)cc3)cc2)[nH]1` [Example M83, methyl ((1S)-1-(((2S)-2-(5-(4′-(2-((2S)-1-(N,N-dipropyl-D-alanyl)-2-pyrrolidinyl)-1H-imidazol-5-yl)-4-biphenylyl)-1H-imidazol-2-yl)-1-pyrrolidinyl)carbonyl)-2-methylpropyl)carbamate], the EC50 was in the range of 1 to 99 nM.

What is called EC50 is the midpoint of the concentration-response curve.

The values above are taken from patent US8574563B2 (Bristol-Myers Squibb Company, priority 2006, dated 2013).
